Positions count from the first letter of the chain named.

Data on five compounds can be found in article PMC9170154, “Identification of an arthropod molecular target for plant-derived natural repellents” (Proceedings of the National Academy of Sciences of the …, 2022).

Holding throughout (assay): whole-cell patch clamp, HEK […]
Background: The patch-clamp technique gives a direct electrical read-out from membranes.

In test [1] the target is T1, dTRPγ (Drosophila melanogaster, UniProt Q9VJJ7, V515A).
T1 construct: gene Trpgamma
T1 sequence (Q9VJJ7 1-1128 V515A): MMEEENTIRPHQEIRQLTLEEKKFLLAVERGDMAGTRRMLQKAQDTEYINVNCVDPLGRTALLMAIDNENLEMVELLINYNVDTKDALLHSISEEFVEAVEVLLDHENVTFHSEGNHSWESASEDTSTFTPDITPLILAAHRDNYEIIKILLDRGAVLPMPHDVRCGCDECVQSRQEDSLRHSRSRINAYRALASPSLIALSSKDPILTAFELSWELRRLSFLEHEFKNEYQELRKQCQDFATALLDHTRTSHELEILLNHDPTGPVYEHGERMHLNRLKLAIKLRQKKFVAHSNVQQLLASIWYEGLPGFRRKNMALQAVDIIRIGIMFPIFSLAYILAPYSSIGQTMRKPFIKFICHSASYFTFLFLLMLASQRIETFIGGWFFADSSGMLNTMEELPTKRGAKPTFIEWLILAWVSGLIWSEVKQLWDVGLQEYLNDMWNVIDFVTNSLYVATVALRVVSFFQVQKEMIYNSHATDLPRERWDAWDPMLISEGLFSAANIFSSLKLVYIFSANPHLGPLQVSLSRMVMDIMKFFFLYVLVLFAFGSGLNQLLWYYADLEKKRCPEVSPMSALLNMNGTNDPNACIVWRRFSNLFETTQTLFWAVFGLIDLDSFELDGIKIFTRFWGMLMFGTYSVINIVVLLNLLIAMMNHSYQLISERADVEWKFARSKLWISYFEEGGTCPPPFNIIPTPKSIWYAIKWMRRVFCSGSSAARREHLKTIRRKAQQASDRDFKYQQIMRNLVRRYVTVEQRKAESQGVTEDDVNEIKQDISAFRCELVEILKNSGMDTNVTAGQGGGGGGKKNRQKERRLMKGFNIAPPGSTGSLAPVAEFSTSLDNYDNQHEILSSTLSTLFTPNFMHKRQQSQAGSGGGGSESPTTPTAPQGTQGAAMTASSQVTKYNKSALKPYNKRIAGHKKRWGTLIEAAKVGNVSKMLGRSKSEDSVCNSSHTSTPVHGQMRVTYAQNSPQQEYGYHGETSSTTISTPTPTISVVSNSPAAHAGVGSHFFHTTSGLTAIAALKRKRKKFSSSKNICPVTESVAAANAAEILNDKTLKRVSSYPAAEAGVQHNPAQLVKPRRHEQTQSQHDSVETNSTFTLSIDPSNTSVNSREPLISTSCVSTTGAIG
The class given is cell-based. To be noted: dTRPγ mutant.

In test [2] the test system is T2, sTRP1 (scorpion TRP1).
T2 construct: full-length cDNA (791 residues) cloned by RACE PCR, in pIRES2-EGFP vector, transiently expressed in HEK 293T cells
Format: cell-based, Olivierus martensii. To be noted: agonist, after full sensitization.

For test [3], the target named is T3, dTRPγ (Drosophila melanogaster, UniProt Q9VJJ7).
T3 construct: gene Trpgamma
T3 sequence (Q9VJJ7 1-1128): T1 sequence (Q9VJJ7 1-1128 V515A) with A515V
The class given is cell-based. To be noted: dTRPγ mutant.

The target in test [4] is T3, dTRPγ. Format: cell-based.
The target in test [5] is T3, dTRPγ. Format: cell-based. To be noted: agonist.
In test [6] the test system is T2, sTRP1 (scorpion TRP1). The class given is cell-based, Olivierus martensii. The following applies: current evoked by 2 mM citronellal after sensitization.

For orientation: EC50 means the midpoint of the concentration-response curve. Take `CC(C)=CCCC(C)CCO` (centres unmarked) [citronellol]: the “whole-cell patch clamp, HEK 293T” value at dTRPγ [1] was “the V515A substitution selectively impaired the sensitivity to citronellol and camphor”; on dTRPγ [3], “mutant V513L reduced the response to citronellal and citronellol”. In addition, the EC50 in the test on sTRP1 (scorpion TRP1) [2] (nH 3.6) amounted to 300 ± 10 µM; on dTRPγ [4] it was 490 ± 20 µM.

In the case of `CC12CCC(CC1=O)C2(C)C` (centres unmarked) [camphor], the “whole-cell patch clamp, HEK 293T” value on dTRPγ [5] is “We here show that camphor activates both sTRP1 and dTRPγ (SI Appendix, Fig. S11)”. For the same compound, the half-maximal effective concentration (EC50) in the test on sTRP1 (scorpion TRP1) [2] (nH 2.4) turned out to be 3300 ± 200 µM.

For the compound `CC(C)=CCCC(C)CC=O` (centres unmarked) [citronellal], the EC50 was found to be 560 ± 10 µM with sTRP1 (scorpion TRP1) [2] (nH 3.3) and 870 ± 50 µM at dTRPγ [4]. The “whole-cell patch clamp, HEK 293T” value on dTRPγ [3] is “mutant V513L reduced the response to citronellal and citronellol”.

By IC50 is commonly meant the point on the concentration scale where inhibition reaches its midpoint. Consider `NCCOB(c1ccccc1)c1ccccc1` [2-aminoethoxydiphenyl borate], for which the IC50 in the test on sTRP1 (scorpion TRP1) [6] (inhibitor, nH 1.3) was found to be 48.3 ± 5.58 µM.

In the case of `Cl.Cl.Cl.Cl.Cl.Cl.N.N.N.N.N.N.N.N.N.N.N.N.N.N.[O-2].[O-2].[Ru+3].[Ru+3].[Ru+4]` [ruthenium red], the IC50 with sTRP1 (scorpion TRP1) [6] (channel blocker, nH 1.6) was 3.12 ± 0.29 µM.
